Measured values taken from the supplement of paper PMC4862054.

Assays:
Test in all cases: normalised viability (% of control), CellTiter-Blue; higher = more viable cells (about 100 = DMSO control)
Settings in all cases: incubation time: 72 h
DU-4475 [1] = tested on: DU-4475
Summary of the method: (§1)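 Breast cancer cell lines in 20 µl suspension were seeded onto 384-well plates pre-loaded with compound dissolved in 5 µl medium, then incubated 72 h. CellTiter-Blue reagent (2.5 µl) was added for 2 h at 37 °C and fluorescence read at 560/590 nm. Each plate was normalised to vehicle (100) and a positive kill control (0), with Z'-factor quality control. The value is normalised viability at one listed concentration of the series.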

SK-BR-3 [2] = tested on: SK-BR-3
Summary of the method: as §1

HCC1599 [3] = tested on: HCC1599
Summary of the method: as §1

MFM-223 [4] = tested on: MFM-223
Summary of the method: as §1

HCC1937 [5] = tested on: HCC1937
Summary of the method: as §1

CAL-148 [6] = tested on: CAL-148
Summary of the method: as §1

CAL-51 [7] = tested on: CAL-51
Summary of the method: as §1

BT-474 [8] = tested on: BT-474
Summary of the method: as §1

HCC1143 [9] = tested on: HCC1143
Summary of the method: as §1

MDA-MB-468 [10] = tested on: MDA-MB-468
Summary of the method: as §1

MDA-MB-231 [11] = tested on: MDA-MB-231
Summary of the method: as §1

MDA-MB-453 [12] = tested on: MDA-MB-453
Summary of the method: as §1

DU-4475 [13] = tested on: DU-4475; remark: listed apart in the source
Description: (§2)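 DSRT, CellTiter-Blue viability, 72 h incubation. Signal is normalised to DMSO and benzethonium chloride controls. Value is the normalised response at dose 3.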

MDA-MB-436 = tested on: MDA-MB-436
Description: as §2

CAL-85-1 = tested on: CAL-85-1
Description: as §2

Hs578T = tested on: Hs578T
Description: as §2

CAL-120 = tested on: CAL-120
Description: as §2

SK-BR-3 [14] = tested on: SK-BR-3; remark: listed apart in the source
Description: as §2

HCC1599 [15] = tested on: HCC1599; remark: listed apart in the source
Description: as §2

HDQ-P1 = tested on: HDQ-P1
Description: as §2

MFM-223 [16] = tested on: MFM-223; remark: listed apart in the source
Description: as §2

HCC1937 [17] = tested on: HCC1937; remark: listed apart in the source
Description: as §2

CAL-148 [18] = tested on: CAL-148; remark: listed apart in the source
Description: as §2

CAL-51 [19] = tested on: CAL-51; remark: listed apart in the source
Description: as §2

BT-474 [20] = tested on: BT-474; remark: listed apart in the source
Description: as §2

HCC1143 [21] = tested on: HCC1143; remark: listed apart in the source
Description: as §2

MDA-MB-468 [22] = tested on: MDA-MB-468; remark: listed apart in the source
Description: as §2

MDA-MB-231 [23] = tested on: MDA-MB-231; remark: listed apart in the source
Description: as §2

BT-549 = tested on: BT-549
Description: as §2

MDA-MB-453 [24] = tested on: MDA-MB-453; remark: listed apart in the source
Description: as §2

C/C(=C\c1csc(C)n1)[C@@H]1C[C@@H]2O[C@]2(C)CCC[C@H](C)[C@H](O)[C@@H](C)C(=O)C(C)(C)[C@@H](O)CC(=O)N1 [Ixabepilone]
Settings | normalised viability [%]
BT-474 [8], 1 nM | 109
BT-474 [8], 100 nM | 115
BT-474 [8], 1000 nM | 26
BT-474 [20], 10 nM | 96.6
BT-549, 10 nM | 95.2
CAL-51 [7], 0.3 nM | 110
CAL-51 [7], 3 nM | 107
CAL-51 [7], 10 nM | 107
CAL-51 [19], 1 nM | 104
CAL-85-1, 1 nM | 90.1
CAL-120, 10 nM | 76.4
CAL-148 [6], 0.3 nM | 95.2
CAL-148 [6], 3 nM | 97.1
CAL-148 [6], 10 nM | 92.8
CAL-148 [18], 1 nM | 90.5
DU-4475 [1], 0.3 nM | 95.4
DU-4475 [1], 3 nM | 77
DU-4475 [1], 10 nM | 92.4
DU-4475 [13], 1 nM | 94.3
HCC1143 [9], 1 nM | 79.3
HCC1143 [9], 100 nM | 80.7
HCC1143 [9], 1000 nM | 25.6
HCC1143 [21], 10 nM | 77
HCC1599 [3], 1 nM | 98.5
HCC1599 [3], 100 nM | 87.6
HCC1599 [3], 1000 nM | 81.2
HCC1599 [15], 10 nM | 94.9
HCC1937 [5], 1 nM | 87.5
HCC1937 [5], 100 nM | 89.1
HCC1937 [5], 1000 nM | 17.2
HCC1937 [17], 10 nM | 95.2
HDQ-P1, 1 nM | 82.7
Hs578T, 10 nM | 81.2
MDA-MB-231 [11], 1 nM | 84.7
MDA-MB-231 [11], 100 nM | 51.6
MDA-MB-231 [11], 1000 nM | 16.8
MDA-MB-231 [23], 10 nM | 98
MDA-MB-436, 10 nM | 105
MDA-MB-453 [12], 0.3 nM | 108
MDA-MB-453 [12], 3 nM | 87.4
MDA-MB-453 [12], 10 nM | 87.3
MDA-MB-453 [24], 1 nM | 89.6
MDA-MB-468 [10], 1 nM | 97.8
MDA-MB-468 [10], 100 nM | 88.5
MDA-MB-468 [10], 1000 nM | 45.4
MDA-MB-468 [22], 10 nM | 91.1
MFM-223 [4], 1 nM | 76.8
MFM-223 [4], 100 nM | 75.8
MFM-223 [4], 1000 nM | 31.6
MFM-223 [16], 10 nM | 73.3
SK-BR-3 [2], 1 nM | 87.8
SK-BR-3 [2], 100 nM | 82.5
SK-BR-3 [2], 1000 nM | 12.6
SK-BR-3 [14], 10 nM | 80.7

COc1c2occc2cc2ccc(=O)oc12 [Methoxsalen]
Settings | normalised viability [%]
BT-474 [8], 10 nM | 123
BT-474 [8], 1000 nM | 102
BT-474 [8], 10000 nM | 117
BT-474 [20], 100 nM | 115
BT-549, 100 nM | 109
CAL-51 [7], 3 nM | 109
CAL-51 [7], 30 nM | 109
CAL-51 [7], 100 nM | 104
CAL-51 [19], 10 nM | 105
CAL-85-1, 10 nM | 100
CAL-120, 100 nM | 106
CAL-148 [6], 3 nM | 98.7
CAL-148 [6], 30 nM | 95.8
CAL-148 [6], 100 nM | 100
CAL-148 [18], 10 nM | 99.5
DU-4475 [1], 3 nM | 95.6
DU-4475 [1], 30 nM | 111
DU-4475 [1], 100 nM | 111
DU-4475 [13], 10 nM | 95.5
HCC1143 [9], 10 nM | 91.8
HCC1143 [9], 1000 nM | 99.1
HCC1143 [9], 10000 nM | 94.2
HCC1143 [21], 100 nM | 106
HCC1599 [3], 10 nM | 106
HCC1599 [3], 1000 nM | 85
HCC1599 [3], 10000 nM | 93.5
HCC1599 [15], 100 nM | 104
HCC1937 [5], 10 nM | 68.3
HCC1937 [5], 1000 nM | 36
HCC1937 [5], 10000 nM | 77.7
HCC1937 [17], 100 nM | 104
HDQ-P1, 10 nM | 99.3
Hs578T, 100 nM | 102
MDA-MB-231 [11], 10 nM | 102
MDA-MB-231 [11], 1000 nM | 99.1
MDA-MB-231 [11], 10000 nM | 112
MDA-MB-231 [23], 100 nM | 100
MDA-MB-436, 100 nM | 103
MDA-MB-453 [12], 3 nM | 119
MDA-MB-453 [12], 30 nM | 103
MDA-MB-453 [12], 100 nM | 112
MDA-MB-453 [24], 10 nM | 95.2
MDA-MB-468 [10], 10 nM | 107
MDA-MB-468 [10], 1000 nM | 112
MDA-MB-468 [10], 10000 nM | 105
MDA-MB-468 [22], 100 nM | 104
MFM-223 [4], 10 nM | 100
MFM-223 [4], 1000 nM | 101
MFM-223 [4], 10000 nM | 50.5
MFM-223 [16], 100 nM | 92.9
SK-BR-3 [2], 10 nM | 104
SK-BR-3 [2], 1000 nM | 127
SK-BR-3 [2], 10000 nM | 104
SK-BR-3 [14], 100 nM | 98.6
